Assay results as given in patent US6969702B2, “Compounds and methods for increasing neurogenesis” (priority 2002, dated 2005).
Marks after values point to notes of the source that are not given here. Ends that are not written are not given here.

Experiments:
neural stem cells = experiment: In vitro proliferation measured with ATP (Example 14); assay type: cell-based; set-up: cell proliferation (ATP), fold the level of control cells: dose or concentration left out as unconfirmed
Method: To determine proliferation, neurospheres were split and seeded in Neurosphere medium as single cells in 96-well plates, at 10,000 cells/well. The following experiment was performed in sets of four parallel experiments (i.e., performed in quadruplicate) such that the cells may be used for different assays. Substances to be tested were added and cells were incubated at 37° C. for 4 days. Cells were lysed with 0.1 % Triton-X100 in Tris-EDTA buffer. Intracellular ATP was measured using an ATP-SL kit according to the manufacturer's instructions (BioThema, Sweden).

[1] = system: newborn cells (BrdU positive) in sub ventricular zone and dentate gyrus; experiment: In vivo progenitor cell proliferation (BrdU); set-up: species or system Wistar rats; conditions: 10 mg/kg intraperitoneally twice daily 7 days with BrdU
[2] = system: adenylate cyclase in UMR 106-06 cells; conditions: relative to sCT; cited from earlier work
[3] = target: dipeptidyl peptidase-IV (DPP-VI) (Homo sapiens, UniProt P27487); conditions: in mammals; cited from earlier work
Sequence of dipeptidyl peptidase-IV (DPP-VI) (P27487 whole entry, species assumed): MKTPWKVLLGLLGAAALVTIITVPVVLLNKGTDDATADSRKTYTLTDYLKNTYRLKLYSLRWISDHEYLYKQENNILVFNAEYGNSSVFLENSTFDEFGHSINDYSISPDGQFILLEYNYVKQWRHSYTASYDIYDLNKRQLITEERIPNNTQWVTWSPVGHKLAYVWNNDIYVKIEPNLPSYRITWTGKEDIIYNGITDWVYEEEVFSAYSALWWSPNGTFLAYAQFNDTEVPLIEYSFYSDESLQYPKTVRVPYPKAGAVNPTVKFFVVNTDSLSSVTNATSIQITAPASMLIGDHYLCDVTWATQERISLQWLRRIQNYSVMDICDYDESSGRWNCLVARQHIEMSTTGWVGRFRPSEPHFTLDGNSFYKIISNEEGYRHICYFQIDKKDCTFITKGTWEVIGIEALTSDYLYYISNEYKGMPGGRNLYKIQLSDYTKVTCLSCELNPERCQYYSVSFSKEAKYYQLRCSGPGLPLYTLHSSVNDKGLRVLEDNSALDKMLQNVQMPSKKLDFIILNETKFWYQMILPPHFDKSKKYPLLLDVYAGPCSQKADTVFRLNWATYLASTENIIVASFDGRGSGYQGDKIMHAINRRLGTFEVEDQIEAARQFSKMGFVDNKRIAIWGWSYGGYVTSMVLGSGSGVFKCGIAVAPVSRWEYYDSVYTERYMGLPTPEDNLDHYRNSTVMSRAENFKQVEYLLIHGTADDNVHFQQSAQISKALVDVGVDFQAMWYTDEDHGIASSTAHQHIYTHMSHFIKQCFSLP

[4] = system: CREB phosphorylation in mouse adult neural stem cells; assay type: cell-based; conditions: 100 nM
[5] = system: CREB phosphorylation in human adult neural stem cells; assay type: cell-based; conditions: 100 nM
[6] = system: NFAT-Luciferace reporter (Ca^2+); conditions: 100 nM
Adult neural stem cells = experiment: Flow cytometry for early neuronal marker Doublecortin; conditions: 100 nM
[7] = system: cAMP activation in mouse adult neural stem cells; experiment: cAMP detection (HitHunter EFC Cyclic AMP Chemiluminescence Assay)
[8] = system: mouse adult neural stem cells; experiment: ATP-assay: proliferation (ATP levels) of neurosphere-derived cells

CC[C@H](C)[C@H](NC(=O)[C@H](C)NC(=O)[C@@H](NC(=O)[C@H](CCC(N)=O)NC(=O)[C@@H]1CCCN1C(=O)[C@H](Cc1ccccc1)NC(=O)[C@@H](NC(=O)[C@H](Cc1c[nH]cn1)NC(=O)[C@H](Cc1ccccc1)NC(=O)[C@H](CCCCN)NC(=O)[C@H](CC(N)=O)NC(=O)[C@H](Cc1ccccc1)NC(=O)[C@H](CC(=O)O)NC(=O)[C@H](CCC(N)=O)NC(=O)[C@@H](NC(=O)[C@H](Cc1ccc(O)cc1)NC(=O)[C@@H](NC(=O)CNC(=O)[C@H](CC(C)C)NC(=O)[C@H](CCSC)NC(=O)[C@@H]1CSSC[C@H](N)C(=O)NCC(=O)N[C@@H](CC(N)=O)C(=O)N[C@@H](CC(C)C)C(=O)N[C@@H](CO)C(=O)N[C@@H]([C@@H](C)O)C(=O)N1)[C@@H](C)O)[C@@H](C)O)[C@@H](C)O)[C@@H](C)O)C(=O)NCC(=O)N[C@H](C(=O)NCC(=O)N[C@@H](C)C(=O)N1CCC[C@H]1C(N)=O)C(C)C [calcitonin]
cell proliferation (ATP), fold the level of control cells (neural stem cells; 4 days): 2.5 fold | EC50 (neural stem cells; neural stem cell cultures, read-out: EC50 value (proliferation dose-response curve, FIG. 3)): 0.03 nM | number of newborn cells (BrdU positive compared to sham injected) [1]: significant increase

CSNLSTCVLGRLSKDLHRLQTFPRTNTGAGVP (cysteine pairing not given here) [[Arg11, 18, Lys14]-sCT]
potency in activating adenylate cyclase [2]: equivalent to that of sCT

His-Asp-Glu-Phe-Glu-Arg-His-Ala-Glu-Gly-Thr-Phe-Thr-Ser-Asp-Val-Ser-Ser-Tyr-Leu-Glu-Gly-Gln-Ala-Ala-Lys-Glu-Phe-Ile-Ala-Trp-Leu-Val-Lys-Gly-Arg-Gly [GLP-1]
halftime of degradation [3]: less than 2 min

cholera toxin
CREB phosphorylation [4]: up-regulation of CREB phosphorylation | CREB phosphorylation [5]: up-regulation of CREB phosphorylation | Fold Induction NFAT [6]: 1.4** fold | NFAT Luciferace units [6]: 11.6 ± 1.0 Luciferace units | Fold Induction (Doublecortin-positive cells) (Adult neural stem cells): 2.6 fold | % Doublecortin-positive cells (Adult neural stem cells; 4 days): 6.7% | cAMP (pmol/well) [7]: 0.07 ± 0.01 pmol/well | Fold Induction cAMP ([7]; 10 nM): 3.1*** fold | proliferation of neural stem cells [8]: increase | ATP (nM ATP/well) ([8]; 100 nM): 12.9 ± 1.6 nM ATP/well | Fold Induction ATP ([8]; 100 nM): 1.4* fold | Fold Induction ATP ([8]; 100 nM, 4 days): 1.4* fold
